The source of these data is article PMC3951388, “Structure-Function Relationship of a Plant NCS1 Member – Homology Modeling and Mutagenesis Identified Residues Critical for Substrate Specificity of PLUTO, a Nucleobase Transporter from Arabidopsis” (PLoS ONE, 2014).

Series [1] deals with T1, PLUTO (Arabidopsis thaliana, UniProt Q9LZD0).
T1 construct: Heterologous expression of the full length PLUTO Arabidopsis gene in Escherichia coli uraA insertion mutants; expressed in transfected cells; host or cells: Escherichia coli JD23420 (uraA transposon insertion strain), vector pTAC-MAT-Tag-2
T1 sequence (Q9LZD0 1-599): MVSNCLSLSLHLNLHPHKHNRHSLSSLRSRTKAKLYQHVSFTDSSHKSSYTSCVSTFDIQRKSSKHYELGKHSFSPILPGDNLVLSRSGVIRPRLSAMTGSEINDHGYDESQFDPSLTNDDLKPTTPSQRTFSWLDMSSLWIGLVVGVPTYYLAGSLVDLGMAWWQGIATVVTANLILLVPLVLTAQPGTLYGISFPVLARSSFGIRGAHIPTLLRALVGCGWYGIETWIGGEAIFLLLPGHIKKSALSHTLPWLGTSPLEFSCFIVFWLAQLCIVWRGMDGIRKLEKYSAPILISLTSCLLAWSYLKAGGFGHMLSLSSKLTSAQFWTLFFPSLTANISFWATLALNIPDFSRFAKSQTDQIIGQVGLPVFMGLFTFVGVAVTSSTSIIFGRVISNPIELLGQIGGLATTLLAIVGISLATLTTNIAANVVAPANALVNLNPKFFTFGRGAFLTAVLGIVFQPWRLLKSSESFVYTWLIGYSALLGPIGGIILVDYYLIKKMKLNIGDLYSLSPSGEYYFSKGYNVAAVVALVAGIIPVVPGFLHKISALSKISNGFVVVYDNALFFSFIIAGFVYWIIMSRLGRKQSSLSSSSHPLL
As to conditions: full length PLUTO in E. coli uraA insertion mutants; ref [4]; cited from earlier work.

Series [2] addresses T1, PLUTO. It is filed as cell-based. As to conditions: wild type PLUTO, 200 μM competitor; for Effect of competitor on uracil transport: 20 μM [14C]-uracil; for Effect of competitor on uracil transport / Effect of competitor on adenine transport / Effect of competitor on guanine transport: 2 min; for Effect of competitor on adenine transport: 20 μM radiolabelled adenine; for Effect of competitor on guanine transport: 20 μM radiolabelled guanine. The source says:
(§1) For the uptake experiments, PLUTO was heterologously expressed in an Escherichia coli transposon insertion strain lacking the endogenous uracil permease uraA (JD23420), obtained from the National Institute of Genetics (Shizuoka, Japan; http://www.shigen.nig.ac.jp/ecoli/strain/top/top.jsp). PLUTO and site directed mutants were cloned in the bacterial expression vector pTAC-MAT-Tag-2 (Sigma Aldrich, Deisenhofen, Germany) as previously described. After the transformation of the cells with the PLUTO expression plasmids, the cells were grown at 37°C and 170 rpm in YT medium containing ampicillin and kanamycin. The expression of PLUTO and site directed mutants was initiated by the addition of isopropyl β-D-thiogalactopyranosid (IPTG) with a final concentration of 0.02% at an OD600 of 0.5. The cells were grown for 2 h after induction, collected by centrifugation for 5 min at 4500 g and 4°C and resuspended with potassium phosphate buffer (50 mM, pH 7.0) to an OD600 of 5. The cells were stored on ice until use.
(§2) The uptake of nucleobases with concentrations of 20 μM was performed at 37°C and permanent shaking at 200 rpm. For the analysis of PLUTO mutants the cells were incubated for 5 min (2 min for competition studies) and the uptake was terminated by vacuum filtration through a membrane filter (0.45 μm pore size; Whatman). The cells were washed three times with 1 ml ice cold potassium phosphate buffer (50 mM, pH 7.0) to remove unimported nucleobases and the radioactivity was quantified in a Packard Tricarb 2500 scintillation counter after the addition of 4 mL scintillation cocktail (Roth). For the competition studies, all competitors were added with ten-fold excess (200 μM) to the uptake medium containing 20 μM radiolabelled nucleobases.

A further series concerns the target T2, PLUTO E227Q G147Q (Arabidopsis thaliana, UniProt Q9LZD0, E227Q/G147Q).
T2 construct: Heterologous expression of the full length PLUTO Arabidopsis gene in Escherichia coli uraA insertion mutants; expressed in transfected cells; host or cells: Escherichia coli JD23420 (uraA transposon insertion strain), vector pTAC-MAT-Tag-2
Kind of series: Radiolabelled nucleobase uptake, PLUTO mutant in E. coli lacking uraA. It is filed as cell-based. The note with it: 20 μM, 5 min.
Description: as §1
(§3) Site directed mutagenesis was achieved by using the QuickChange II-E Site directed mutagenesis kit (Stratagene) according to the manufacturer's instructions.
as §2

A further series has as its target T3, PLUTO E227Q T425A (Arabidopsis thaliana, UniProt Q9LZD0, E227Q/T425A).
T3 construct: Heterologous expression of the full length PLUTO Arabidopsis gene in Escherichia coli uraA insertion mutants; expressed in transfected cells; host or cells: Escherichia coli JD23420 (uraA transposon insertion strain), vector pTAC-MAT-Tag-2
The description is as above. It is filed as cell-based. As to conditions: 20 μM, 5 min.
Description: as §1, §3, §2

In a further series the target is T4, PLUTO E227K (Arabidopsis thaliana, UniProt Q9LZD0, E227K).
T4 construct: Heterologous expression of the full length PLUTO Arabidopsis gene in Escherichia coli uraA insertion mutants; expressed in transfected cells; host or cells: Escherichia coli JD23420 (uraA transposon insertion strain), vector pTAC-MAT-Tag-2
Described as above. It is filed as cell-based. As to conditions: 20 μM, 5 min.
Description: as §1, §3, §2

Series [3] concerns the target T1, PLUTO. Put plainly: Radiolabelled nucleobase uptake, wild type PLUTO expressed in E. coli lacking uraA. It is filed as cell-based. As to conditions: for Net import: wild type PLUTO (control), 5 min, corrected for uninduced cells. The source says: The cells were stored on ice until use.
A further series deals with PLUTO E227D (Arabidopsis thaliana, UniProt Q9LZD0, E227D). The note with it: mutant E227D; 20 μM; 5 min.
Description: as §1, §3, §2

Another series deals with PLUTO G147Q (Arabidopsis thaliana, UniProt Q9LZD0, G147Q). The note with it: mutant G147Q; 20 μM; 5 min.
Description: as §1, §3, §2

A further series concerns the target PLUTO E227Q (Arabidopsis thaliana, UniProt Q9LZD0, E227Q). Put plainly: Radiolabelled nucleobase uptake, PLUTO mutant in E. coli lacking uraA. As to conditions: 20 μM, 5 min.
Description: as §1, §3, §2

A further series has as its target PLUTO E227A (Arabidopsis thaliana, UniProt Q9LZD0, E227A). The description is as above. As to conditions: 20 μM, 5 min.
Description: as §1, §3, §2

The target in a further series is PLUTO V145A G147Q (Arabidopsis thaliana, UniProt Q9LZD0, G147Q/V145A). Described as above. The note with it: 20 μM, 5 min.
Description: as §1, §3, §2

The next series addresses T5, PLUTO W223A (Arabidopsis thaliana, UniProt Q9LZD0, W223A).
T5 construct: Heterologous expression of the full length PLUTO Arabidopsis gene in Escherichia coli uraA insertion mutants; expressed in transfected cells; host or cells: Escherichia coli JD23420 (uraA transposon insertion strain), vector pTAC-MAT-Tag-2
The class given is cell-based. As to conditions: mutant W223A, 200 μM competitor; for Effect of competitor on uracil transport: 20 μM uracil; for Effect of competitor on guanine transport: 20 μM guanine.
Description: as §1, §3, §2

The next series relates to O=c1cc[nH]c(=O)[nH]1. Put plainly: cells, lysate or membranes. As to conditions: corrected for uptake into uninduced cells, pH 7.0.
In another series the test system is Nc1nc2nc[nH]c2c(=O)[nH]1. Kind of series: cells, lysate or membranes. As to conditions: pH 7.0; 37.0 °C.
Another series deals with Nc1ncnc2nc[nH]c12. Put plainly: cells, lysate or membranes. As to conditions: corrected for uptake into uninduced cells, pH 7.0.
A further series deals with PLUTO I226A (Arabidopsis thaliana, UniProt Q9LZD0, I226A). The note with it: mutant I226A; 20 μM guanine, 200 μM competitor.
Description: as §1, §3, §2

For another series, the target named is PLUTO F341A (Arabidopsis thaliana, UniProt Q9LZD0, F341A). The note with it: mutant F341A; 20 μM guanine, 200 μM competitor.
Description: as §1, §3, §2

“Also recorded” adds a separate entry of the source. Where only a bound is given, the exact number is not on record here.

PLUTO G147Q, sequence (Q9LZD0 whole entry G147Q): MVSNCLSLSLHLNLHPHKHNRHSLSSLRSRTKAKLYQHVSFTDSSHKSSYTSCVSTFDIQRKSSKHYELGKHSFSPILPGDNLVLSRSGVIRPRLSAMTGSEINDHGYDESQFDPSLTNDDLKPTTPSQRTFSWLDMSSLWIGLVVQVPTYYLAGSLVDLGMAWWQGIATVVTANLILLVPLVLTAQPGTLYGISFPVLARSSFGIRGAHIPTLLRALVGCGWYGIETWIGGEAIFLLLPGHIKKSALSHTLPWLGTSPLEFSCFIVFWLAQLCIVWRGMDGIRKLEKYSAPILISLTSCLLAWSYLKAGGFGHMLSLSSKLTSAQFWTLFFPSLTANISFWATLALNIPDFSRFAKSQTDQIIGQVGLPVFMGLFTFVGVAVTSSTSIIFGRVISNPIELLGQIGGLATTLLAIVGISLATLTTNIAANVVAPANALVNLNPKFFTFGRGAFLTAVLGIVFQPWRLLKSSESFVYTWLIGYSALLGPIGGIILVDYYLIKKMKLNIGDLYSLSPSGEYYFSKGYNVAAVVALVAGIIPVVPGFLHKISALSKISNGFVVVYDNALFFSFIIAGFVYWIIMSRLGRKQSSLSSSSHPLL
PLUTO E227D, sequence (Q9LZD0 whole entry E227D): as the sequence (Q9LZD0 whole entry G147Q) above, with Q147G, E227D counted along it
PLUTO E227Q, sequence (Q9LZD0 whole entry E227Q): as the sequence (Q9LZD0 whole entry G147Q) above, with Q147G, E227Q counted along it
T4 sequence (Q9LZD0 whole entry E227K): as the sequence (Q9LZD0 whole entry G147Q) above, with Q147G, E227K counted along it
T5 sequence (Q9LZD0 whole entry W223A): as the sequence (Q9LZD0 whole entry G147Q) above, with Q147G, W223A counted along it
PLUTO E227A, sequence (Q9LZD0 whole entry E227A): as the sequence (Q9LZD0 whole entry G147Q) above, with Q147G, E227A counted along it
T2 sequence (Q9LZD0 whole entry G147Q/E227Q): as the sequence (Q9LZD0 whole entry G147Q) above, with E227Q counted along it
T3 sequence (Q9LZD0 whole entry E227Q/T425A): as the sequence (Q9LZD0 whole entry G147Q) above, with Q147G, E227Q, T425A counted along it
PLUTO V145A G147Q, sequence (Q9LZD0 whole entry V145A/G147Q): as the sequence (Q9LZD0 whole entry G147Q) above, with V145A counted along it
PLUTO I226A, sequence (Q9LZD0 whole entry I226A): as the sequence (Q9LZD0 whole entry G147Q) above, with Q147G, I226A counted along it
PLUTO F341A, sequence (Q9LZD0 whole entry F341A): as the sequence (Q9LZD0 whole entry G147Q) above, with Q147G, F341A counted along it

Turning to `Nc1nc2nc[nH]c2c(=O)[nH]1` [guanine], the Apparent affinity on PLUTO [1] is 6.3 µM. Further, the “Effect of competitor on uracil transport” value on PLUTO [2] was “reduced”. Also, the “Effect of competitor on adenine transport” value at PLUTO [2] is recorded as “not influenced”. Further, the “Residual transport compared to controls” value on PLUTO E227Q G147Q was at most 16%; at PLUTO E227Q T425A, 25%; on PLUTO E227K, 11%; at PLUTO E227Q, 21%; at PLUTO E227A, 4%. The molecule also came in with a Net import at PLUTO [3] (20 μM) of 3.4 nmol mg^−1 protein. For the same molecule, the Transport at PLUTO E227D stood at 0.86 nmol mg^−1 protein. The “Transport activity (in words)” value on PLUTO G147Q is given as “not significantly altered”. Besides, the “Residual transport relative to controls” value on PLUTO V145A G147Q was found to be 12%.
For `Cc1c[nH]c(=O)[nH]c1=O` [thymine], the results for the “Effect of competitor on uracil transport” value on PLUTO [2] and on PLUTO W223A were “affected” and “inhibited”, respectively. In addition, the “Transport substrate status in direct uptake studies” value on PLUTO [3] (wild type PLUTO) is listed as “not identified as transport substrates”.
Take `O=C1NC(=O)C(Cc2ccccc2)N1` (stereo not shown) [benzyl hydantoin]: at PLUTO [2], the “Transport by PLUTO judged by competitive binding analysis” value is “no indication for a transport”.
On to “PLUTO E227D (Arabidopsis thaliana; E227D)”, for which the Km was 5.18 (±1.21) μM in the series on O=c1cc[nH]c(=O)[nH]1 (other: mutant E227D), 3.70 (±0.72) μM in the series with Nc1nc2nc[nH]c2c(=O)[nH]1 and 0.97 (±0.21) μM in the series on Nc1ncnc2nc[nH]c12 (other: mutant E227D).
In the case of “PLUTO E227A (Arabidopsis thaliana; E227A)”, the Km with Nc1ncnc2nc[nH]c12 (other: mutant E227A) is 0.21 (±0.05) μM.
`O=C1CCNC(=O)N1` [dihydrouracil]: the “Effect of competitor on uracil transport” value on PLUTO W223A is recorded as “inhibited”.
Take `Nc1ncnc2[nH]cnc12` [adenine]: the Apparent affinity at PLUTO [1] was 0.4 µM. Besides, the “Effect of competitor on uracil transport” value on PLUTO [2] is “remained unaffected”. The “Effect of competitor on guanine transport” value at PLUTO [2] was “marked inhibitory effects”. Besides, the “Residual transport compared to controls” value on PLUTO E227Q G147Q is at most 16%; at PLUTO E227Q T425A, 32%; at PLUTO E227K, 7%; at PLUTO E227A, 26%. This molecule also had a Transport at PLUTO E227D of 2.1 nmol mg^−1 protein. Moreover, the “Transport rate relative to controls” value on PLUTO E227D stood at 64%. For the same molecule, the “Impairment of transport versus control” value at PLUTO G147Q amounted to 45%. Also, on PLUTO E227Q, the “Increase of transport versus control” value was 21%.
For `O=c1[nH]c(=O)c2[nH]c(=O)[nH]c2[nH]1` [uric acid], the figures for the “Effect of competitor on guanine transport” value at PLUTO [2] and on PLUTO W223A were “affected” and “no longer able to inhibit”, respectively.
Take `O=c1cc[nH]c(=O)[nH]1` [uracil]: on PLUTO [1], the Apparent affinity is 16.4 µM. Also, the “Effect of competitor on adenine transport” value on PLUTO [2] is listed as “not influenced”. The “Effect of competitor on guanine transport” value on PLUTO [2] is recorded as “marked inhibitory effects”. For the same molecule, the “Residual transport compared to controls” value on PLUTO E227Q G147Q is listed as at most 16%. The “Transport activity (in words)” value at PLUTO E227K is recorded as “completely extinguished”; at PLUTO G147Q it was “not significantly altered”; at PLUTO E227Q it was “completely extinguished”; at PLUTO E227A, “completely extinguished”. Further, on PLUTO [3] (20 μM), the Net import is 3.2 nmol mg^−1 protein. The “Import into induced E. coli cells” value on PLUTO [3] (wild type PLUTO, 20 μM, 5 min incubation, not corrected for uninduced cells) amounted to 3.7±0.28 nmol mg^−1 protein. The Transport at PLUTO E227D worked out at 0.53 nmol mg^−1 protein. For the same molecule, at PLUTO V145A G147Q, the “Increase of transport versus control” value was 50%.
Take `Cc1ncc(C[n+]2csc(CCO)c2C)c(N)n1` [thiamine]: the “Effect of competitor on uracil transport” value on PLUTO W223A is listed as “inhibited”.
Take “PLUTO E227Q (Arabidopsis thaliana; E227Q)”: in the series with Nc1ncnc2nc[nH]c12 (other: mutant E227Q), the Km is 0.22 (±0.05) μM.
“PLUTO V145A G147Q (Arabidopsis thaliana; G147Q/V145A)”: the Km with O=c1cc[nH]c(=O)[nH]1 (other: mutant V145A G147Q) is 20.15 (±3.73) μM; in the series with Nc1ncnc2nc[nH]c12 (other: mutant V145A G147Q), 0.81 (±0.17) μM.
As to `O=C(O)c1cc(=O)[nH]c(=O)[nH]1` [orotate], at PLUTO [2], the “Effect of competitor on uracil transport” value is listed as “affected”. Besides, the “Transport substrate status in direct uptake studies” value at PLUTO [3] (wild type PLUTO) is recorded as “not identified as transport substrates”.
On to “PLUTO G147Q (Arabidopsis thaliana; G147Q)”, for which the Km in the series with O=c1cc[nH]c(=O)[nH]1 (other: mutant G147Q) was 36.07 (±2,32) μM; with Nc1ncnc2nc[nH]c12 (other: mutant G147Q) it was 0.68 (±0.20) μM.
With `O=c1[nH]cnc2nc[nH]c12` [hypoxanthine], the “Effect of competitor on guanine transport” value was “affected; also recorded: marked inhibition” at PLUTO [2], “no longer able to inhibit” at PLUTO W223A, “inhibited” on PLUTO I226A and “inhibited” on PLUTO F341A.
